Reference: US20180200257A1, “METHODS FOR THE TREATMENT OF INFLAMMATORY DISORDERS” (Galapagos NV, priority 2015, published 2018)

System: subjects with moderately to severely active RA who have an inadequate response to methotrexate (MTX)
Assay: Study 1 (add-on to MTX) - Creatinine levels
Format: in vivo, human
Experimental: Double-blind, placebo-controlled add on study in subjects with moderately to severely active RA who have an inadequate response to methotrexate (MTX) (oral or parenteral).
595 subjects randomized to one of 6 dose regimens of Compound 1 (dosed as [Compound 1:HCl:3H2O]) (3 dose levels administered either once or twice daily) or placebo on top of each subject's stable dose of MTX.
Compound 1 (dosed as [Compound 1:HCl:3H2O]) is dosed for twelve weeks once daily (q.d.) (50 mg, 100 mg or 200 mg) or twice daily (b.i.d.) (25 mg, 50 mg or 100 mg); or placebo.
At Week 12, the subjects on placebo who have not achieved 20% improvement in swollen joint count (SJC66) and tender joint count (TJC68) are re-randomized automatically to receive Compound 1 (dosed as a [Compound 1:HCl:3H2O]) either at 100 mg q.d. or 50 mg b.i.d. doses in a blinded fashion; subjects on 50 mg q.d. who have not achieved 20% improvement in SJC66 and TJC68 will be assigned to 100 mg q.d. and subjects on 25 mg b.i.d. that have not achieved a 20% improvement in SJC66 and TJC68 will be assigned to 50 mg b.i.d. Subjects who switch treatment at week 12 are handled as if they discontinued at week 12 for the purpose of statistical analysis, whereas subjects in the other groups will maintain their randomized treatment until Week 24.
Creatinine levels determination is available at Quest Diagnostics, Clinical Trials, Quest House, 125-135 Staines Road, Hounslow, Middlesex, TW3 3JB, United Kingdom under Catalogue n# 82565. For Study 3, the data are obtained at BARC Europe, 3B,Industrie Park, Zwijnaarde, B-9052 Ghent, Belgium.
The Enzymatic method is based on the determination of sarcosine after conversion of creatinine with the aid of creatininase, creatinase, and sarcosine oxidase. The liberated hydrogen peroxide reacts with 4-aminophenazone and HTIB to form a quinone imine chromogen. The reaction is catalyzed by peroxidase. The color intensity is directly proportional to concentration of creatinine present and can be measured photometrically.

[1] = 2 × 25 mg b.i.d. (N = 86), week 0
[2] = 2 × 25 mg b.i.d. (N = 86), week 1
[3] = 2 × 25 mg b.i.d. (N = 86), week 2
[4] = 2 × 25 mg b.i.d. (N = 86), week 4
[5] = 2 × 25 mg b.i.d. (N = 86), week 8
[6] = 2 × 25 mg b.i.d. (N = 86), week 12
[7] = 2 × 50 mg b.i.d. (N = 85), week 0
[8] = 2 × 50 mg b.i.d. (N = 85), week 1
[9] = 2 × 50 mg b.i.d. (N = 85), week 2
[10] = 2 × 50 mg b.i.d. (N = 85), week 4
[11] = 2 × 50 mg b.i.d. (N = 85), week 8
[12] = 2 × 50 mg b.i.d. (N = 85), week 12
[13] = 2 × 100 mg b.i.d. (N = 84), week 0
[14] = 2 × 100 mg b.i.d. (N = 84), week 1
[15] = 2 × 100 mg b.i.d. (N = 84), week 2
[16] = 2 × 100 mg b.i.d. (N = 84), week 4
[17] = 2 × 100 mg b.i.d. (N = 84), week 8
[18] = 2 × 100 mg b.i.d. (N = 84), week 12
[19] = continued 50 mg q.d. (N = 63), week 0
[20] = continued 50 mg q.d. (N = 63), week 1
[21] = continued 50 mg q.d. (N = 63), week 2
[22] = continued 50 mg q.d. (N = 63), week 24
[23] = placebo switched to 50 mg b.i.d. at week 12 (N = 15), week 16
[24] = placebo switched to 50 mg b.i.d. at week 12 (N = 15), week 20
[25] = placebo switched to 50 mg b.i.d. at week 12 (N = 15), week 24

Which results are given for `O=C(Nc1nc2cccc(-c3ccc(CN4CCS(=O)(=O)CC4)cc3)n2n1)C1CC1` [Compound 1, cyclopropanecarboxylic acid {5-[4-(1,1-dioxo-thiomorpholin-4-ylmethyl)-phenyl]-[1,2,4]triazolo[1,5-a]pyridin-2-yl}-amide]?
Creatinine Mean CFB (50 mg q.d. (N = 82), week 0): 0 µmol/L; Creatinine Mean percentage CFB (50 mg q.d. (N = 82), week 0): 0%; Creatinine Mean CFB (50 mg q.d. (N = 82), week 1): 1 µmol/L; Creatinine Mean percentage CFB (50 mg q.d. (N = 82), week 1): 3%; Creatinine Mean CFB (50 mg q.d. (N = 82), week 2): 1 µmol/L; Creatinine Mean percentage CFB (50 mg q.d. (N = 82), week 2): 2%; Creatinine Mean CFB (50 mg q.d. (N = 82), week 4): 1 µmol/L; Creatinine Mean percentage CFB (50 mg q.d. (N = 82), week 4): 3%; Creatinine Mean CFB (50 mg q.d. (N = 82), week 8): 2 µmol/L; Creatinine Mean percentage CFB (50 mg q.d. (N = 82), week 8): 4%; Creatinine Mean CFB (50 mg q.d. (N = 82), week 12): 2 µmol/L; Creatinine Mean percentage CFB (50 mg q.d. (N = 82), week 12): 3%; Creatinine Mean CFB (100 mg q.d. (N = 85), week 0): 0 µmol/L; Creatinine Mean percentage CFB (100 mg q.d. (N = 85), week 0): 0%; Creatinine Mean CFB (100 mg q.d. (N = 85), week 1): 2 µmol/L; Creatinine Mean percentage CFB (100 mg q.d. (N = 85), week 1): 4%; Creatinine Mean CFB (100 mg q.d. (N = 85), week 2): 3 µmol/L; Creatinine Mean percentage CFB (100 mg q.d. (N = 85), week 2): 5%; Creatinine Mean CFB (100 mg q.d. (N = 85), week 4): 2 µmol/L; Creatinine Mean percentage CFB (100 mg q.d. (N = 85), week 4): 4%; Creatinine Mean CFB (100 mg q.d. (N = 85), week 8): 2 µmol/L; Creatinine Mean percentage CFB (100 mg q.d. (N = 85), week 8): 4%; Creatinine Mean CFB (100 mg q.d. (N = 85), week 12): 4 µmol/L; Creatinine Mean percentage CFB (100 mg q.d. (N = 85), week 12): 7%; Creatinine Mean CFB (200 mg q.d. (N = 86), week 0): 0 µmol/L; Creatinine Mean percentage CFB (200 mg q.d. (N = 86), week 0): 0%; Creatinine Mean CFB (200 mg q.d. (N = 86), week 1): 3 µmol/L; Creatinine Mean percentage CFB (200 mg q.d. (N = 86), week 1): 6%; Creatinine Mean CFB (200 mg q.d. (N = 86), week 2): 3 µmol/L; Creatinine Mean percentage CFB (200 mg q.d. (N = 86), week 2): 6%; Creatinine Mean CFB (200 mg q.d. (N = 86), week 4): 4 µmol/L; Creatinine Mean percentage CFB (200 mg q.d. (N = 86), week 4): 7%; Creatinine Mean CFB (200 mg q.d. (N = 86), week 8): 4 µmol/L; Creatinine Mean percentage CFB (200 mg q.d. (N = 86), week 8): 7%; Creatinine Mean CFB (200 mg q.d. (N = 86), week 12): 4 µmol/L; Creatinine Mean percentage CFB (200 mg q.d. (N = 86), week 12): 8%; Creatinine Mean CFB [1]: 0 µmol/L; Creatinine Mean percentage CFB [1]: 0%; Creatinine Mean CFB [2]: 1 µmol/L; Creatinine Mean percentage CFB [2]: 2%; Creatinine Mean CFB [3]: 1 µmol/L; Creatinine Mean percentage CFB [3]: 2%; Creatinine Mean CFB [4]: 0 µmol/L; Creatinine Mean percentage CFB [4]: 2%; Creatinine Mean CFB [5]: 2 µmol/L; Creatinine Mean percentage CFB [5]: 3%; Creatinine Mean CFB [6]: 1 µmol/L; Creatinine Mean percentage CFB [6]: 3%; Creatinine Mean CFB [7]: 0 µmol/L; Creatinine Mean percentage CFB [7]: 0%; Creatinine Mean CFB [8]: 3 µmol/L; Creatinine Mean percentage CFB [8]: 5%; Creatinine Mean CFB [9]: 4 µmol/L; Creatinine Mean percentage CFB [9]: 6%; Creatinine Mean CFB [10]: 3 µmol/L; Creatinine Mean percentage CFB [10]: 5%; Creatinine Mean CFB [11]: 3 µmol/L; Creatinine Mean percentage CFB [11]: 6%; Creatinine Mean CFB [12]: 4 µmol/L; Creatinine Mean percentage CFB [12]: 7%; Creatinine Mean CFB [13]: 0 µmol/L; Creatinine Mean percentage CFB [13]: 0%; Creatinine Mean CFB [14]: 5 µmol/L; Creatinine Mean percentage CFB [14]: 8%; Creatinine Mean CFB [15]: 4 µmol/L; Creatinine Mean percentage CFB [15]: 8%; Creatinine Mean CFB [16]: 4 µmol/L; Creatinine Mean percentage CFB [16]: 8%; Creatinine Mean CFB [17]: 7 µmol/L; Creatinine Mean percentage CFB [17]: 12%; Creatinine Mean CFB [18]: 6 µmol/L; Creatinine Mean percentage CFB [18]: 12%; Creatinine Mean CFB [19]: 0.0 µmol/L; Creatinine Mean percentage CFB [19]: 0.0%; Creatinine Mean CFB [20]: 1.4 µmol/L; Creatinine Mean percentage CFB [20]: 3.0%; Creatinine Mean CFB [21]: 0.7 µmol/L; Creatinine Mean percentage CFB [21]: 1.6%; Creatinine Mean CFB [22]: 0.6 µmol/L; Creatinine Mean percentage CFB [22]: 2.1%; Creatinine Mean CFB [23]: 4.2 µmol/L; Creatinine Mean percentage CFB [23]: 8.2%; Creatinine Mean CFB [24]: 3.6 µmol/L; Creatinine Mean percentage CFB [24]: 7.2%; Creatinine Mean CFB [25]: 4.6 µmol/L; Creatinine Mean percentage CFB [25]: 8.7%
